IC50 and efflux ratio data for 14 molecules are collected here from patent US10995101B2, “2-oxo-thiazole derivatives as A2A inhibitors and compounds for use in the treatment of cancers” (iTeos Therapeutics SA, priority 2017, dated 2021).

The structures appear in SMILES notation.

For one data set, the target named is A2A receptor (Homo sapiens, UniProt P29274). The experiment in a line: Inhibition of cAMP production in HEK cells. It is filed as cell-based. To be noted: HEK-293 cells with A2A receptor. As to the method: When the A2A receptor is activated, is induces the production of cAMP.
A2A receptor, sequence (P29274 whole entry): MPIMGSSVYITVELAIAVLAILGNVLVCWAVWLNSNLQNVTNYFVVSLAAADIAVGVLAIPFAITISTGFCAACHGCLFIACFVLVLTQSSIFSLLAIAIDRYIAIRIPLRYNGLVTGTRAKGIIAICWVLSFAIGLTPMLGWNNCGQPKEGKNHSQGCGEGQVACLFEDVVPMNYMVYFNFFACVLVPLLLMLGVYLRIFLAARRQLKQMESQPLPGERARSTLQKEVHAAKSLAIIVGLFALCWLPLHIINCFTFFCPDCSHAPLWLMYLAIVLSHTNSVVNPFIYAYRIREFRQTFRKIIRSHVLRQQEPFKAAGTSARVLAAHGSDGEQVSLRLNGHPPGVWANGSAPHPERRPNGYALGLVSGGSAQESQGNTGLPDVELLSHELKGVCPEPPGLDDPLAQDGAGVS
HEK-293 cells with a stable transfection of A2A receptor were bought from PerkinElmer® (# ES-011-C). […] Fresh media without the selection marker was added on the day immediately before the experiment to stop selection pressure.
Stimulation buffer b) mimics the human situation by increasing the amount of albumin present in the assay.
Compounds of the present invention were diluted 100× in either of the buffers depending on the assay performed. […] The total volume of the reaction was 20 μl (10 μl of cells, 5 μl of antagonist and 5 μl of agonist). The reaction was finalized by adding 10 μl of 4× EU-cAMP tracer working solution and 10 μl of 4× ULight-anti-cAMP working solution. The TR-FRET signal was measured after 1 hour using a Spectramax Paradigm (Molecular Devices).
A general note: cAMP levels reflect the balance of adenylyl cyclase and phosphodiesterase activity.

A further data set can be described thus: in vitro. To be noted: human, Caco-2, pH 7.4.
[1] abbreviates: IC50 (nM) (3 nM NECA as agonist, 0.1% BSA), 3 nM NECA as agonist, 0.1% BSA.
Setting [2] is: IC50 (nM) (5 μM Adenosine as agonist, 2.0% HSA), 5 μM Adenosine as agonist, 2.0% HSA.
[3] abbreviates: IC50 (nM) (5 nM NECA as agonist, 2% HSA), 5 nM NECA as agonist, 2% HSA.

Procedure for in vitro: 2 μM dosing solutions for reference compounds and test compounds are prepared by spiking the appropriate volume of intermediate solution to TB with and without 1 μM Zosuquidar. The final concentration of DMSO is no more than 1% (v/v).
Caco-2 cells are grown in MEM supplemented with 2 mM L-glutamine, 10% FBS, 100 U/mL penicillin-G and 100 μg/mL streptomycin. The cells are incubated at 37° C., 5% CO2 and relatively saturated humidity. After reaching 80-90% confluency, the cells are gently detached with 0.05% trypsin-EDTA solution.
TB and dosing solutions were pre-warmed to 37° C. before transport assay. The cell monolayer was washed twice with HBSS containing 10 mM HEPES. For A-B (apical to basolateral) directional transport assay, 75 μL dosing solution is added to the apical well. Fill each basolateral well with 250 μL TB. For B-A (basolateral to apical) directional transport assay, 250 μL of dosing solution is added to the basolateral well after filling each apical well with 75 μL TB. […] The plates are incubated for 120 minutes at 37° C. with 5% CO2 and saturated humidity. The time zero samples are generated by mixing 50 μL initial dosing solution of test compound or reference compound with 100 μL TB and 250 μL quench solution (acetonitrile (ACN) or other appropriate solvent with internal standard(s), based on the bioanalytical method development). At 120 minutes, 150 μL of solution is collected from each A-B receiver well followed by addition of 250 μL quench solution to get A-B receiver sample. And for other samples (A-B donor, B-A donor and receiver), 50 μL of solution is collected from each corresponding well followed by addition of 250 μL quench solution and 100 μL TB. All samples are vortex-mixed and centrifuged at 3220 g for 20 minutes. Subsequently, supernatant is diluted with ultra pure water for LC-MS/MS analysis. The concentrations of test compound in all samples are determined by LC-MS/MS and expressed as peak area ratio of analyte to internal standard.
The concentration of samples is expressed using the peak area ratio of Analyte to Internal Standard (Analyte/IS).
The efflux ratio is calculated using the following equation: Efflux ratio=Papp(A−B)/Papp(B−A) • where Papp (A−B) and Papp (B−A) are the Papp values of compound in Apical to Basolateral and Basolateral to Apical directional transport, respectively.

Broadly, the IC50 is the concentration needed to halve the response being measured. Read a low IC50 as inhibition by little substance. The efflux ratio is the permeability from basolateral to apical divided by that in the opposite direction, in the common usage. Turning to `Nc1nc2c(sc(=O)n2CCN2CCN(c3ccc(N4CC[S+]([O-])CC4)cc3F)CC2)c2nc(-c3ccco3)nn12` [Compound 126, 5-amino-3-(2-(4-(2-fluoro-4-(1-oxidothiomorpholino)phenyl)piperazin-1-yl)ethyl)-8-(furan-2-yl)thiazolo[5,4-e][1,2,4]triazolo[1,5-c]pyrimidin-2(3H)-one], the IC50 came to 0.6 nM on A2A receptor (setting [1]) and 78 nM at A2A receptor (setting [2]). In addition, in the data set “in vitro”, the efflux ratio at 120 min, 2 μM worked out at 83.

`Cn1cnc(COc2cc(N3CCN(CCn4c(=O)sc5c4nc(N)n4nc(-c6ccco6)nc54)CC3)c(F)cc2F)n1` [Compound 68, 5-amino-3-(2-(4-(2,4-difluoro-5-((1-methyl-1H-1,2,4-triazol-3-yl)methoxy)phenyl)piperazin-1-yl)ethyl)-8-(furan-2-yl)thiazolo[5,4-e][1,2,4]triazolo[1,5-c]pyrimidin-2(3H)-one]: the results for the IC50 on A2A receptor (setting [1]), on A2A receptor (setting [3]) and on A2A receptor (setting [2]) were 14 nM, 123 nM and 2700 nM, respectively. The efflux ratio at 120 min, 2 μM in “in vitro” came to 108.

As for `Nc1nc2c(sc(=O)n2CCN2CCN(c3ccc(OCC4CNCCO4)cc3F)CC2)c2nc(-c3ccco3)nn12` (stereo not drawn) [Compound 100, 5-amino-3-(2-(4-(2-fluoro-4-(morpholin-2-ylmethoxy)phenyl)piperazin-1-yl)ethyl)-8-(furan-2-yl)thiazolo[5,4-e][1,2,4]triazolo[1,5-c]pyrimidin-2(3H)-one], the values for the IC50 at A2A receptor (setting [1]) and on A2A receptor (setting [2]) were 0.1 nM and 10 nM, respectively. In addition, in “in vitro”, the efflux ratio at 120 min, 2 μM is 66.

Turning to `Nc1nc2c(sc(=O)n2CCN2CCN(c3ccc(CCC(=O)O)cc3F)CC2)c2nc(-c3ccco3)nn12` [Compound 40, 3-(4-(4-(2-(5-amino-8-(furan-2-yl)-2-oxothiazolo[5,4-e][1,2,4]triazolo[1,5-c]pyrimidin-3(2H)-yl)ethyl)piperazin-1-yl)-3-fluorophenyl)propanoic acid], the IC50 amounted to 0.7 nM on A2A receptor (setting [1]), 7 nM on A2A receptor (setting [3]) and 261 nM on A2A receptor (setting [2]). In “in vitro”, the efflux ratio at 120 min, 2 μM was determined as 25.

In the case of `C[S@@+]([O-])CCOc1ccc(N2CCN(CCn3c(=O)sc4c3nc(N)n3nc(-c5ccco5)nc43)CC2)c(F)c1` (single isomer, unassigned) [Compound 6], the IC50 came out at 0.5 nM on A2A receptor (setting [1]), 8 nM at A2A receptor (setting [3]) and 179 nM on A2A receptor (setting [2]). For the same molecule, the efflux ratio at 120 min, 2 μM in “in vitro” was 59.

`Cc1cc(N2CCN(CCn3c(=O)sc4c3nc(N)n3nc(-c5ccco5)nc43)CC2)c(F)cn1` [Compound 82, 5-amino-3-(2-(4-(5-fluoro-2-methylpyridin-4-yl)piperazin-1-yl)ethyl)-8-(furan-2-yl)thiazolo[5,4-e][1,2,4]triazolo[1,5-c]pyrimidin-2(3H)-one]: the half-inhibitory concentration (IC50) at A2A receptor (setting [1]) worked out at 0.2 nM; at A2A receptor (setting [2]), 15 nM. Also, the efflux ratio at 120 min, 2 μM in the data set “in vitro” was 3.

Turning to `CN(C)CCN(C)C(=O)c1ccc(N2CCN(CCn3c(=O)sc4c3nc(N)n3nc(-c5ccco5)nc43)CC2)c(F)c1` [Compound 56, 4-(4-(2-(5-amino-8-(furan-2-yl)-2-oxothiazolo[5,4-e][1,2,4]triazolo[1,5-c]pyrimidin-3(2H)-yl)ethyl)piperazin-1-yl)-N-(2-(dimethylamino)ethyl)-3-fluoro-N-methylbenzamide], the IC50 on A2A receptor (setting [1]) was 0.2 nM; on A2A receptor (setting [3]), 1 nM; on A2A receptor (setting [2]) it was 25 nM. Also, the efflux ratio at 120 min, 2 μM in the data set “in vitro” turned out to be 1750.

`CN(C)CCN(C)C(=O)c1cc(N2CCN(CCn3c(=O)sc4c3nc(N)n3nc(-c5ccco5)nc43)CC2)c(F)cc1F` [Compound 64, 5-(4-(2-(5-amino-8-(furan-2-yl)-2-oxothiazolo[5,4-e][1,2,4]triazolo[1,5-c]pyrimidin-3(2H)-yl)ethyl)piperazin-1-yl)-N-(2-(dimethylamino)ethyl)-2,4-difluoro-N-methylbenzamide]: the IC50 at A2A receptor (setting [1]) came to 0.6 nM; on A2A receptor (setting [3]), 1 nM; at A2A receptor (setting [2]) it was 36 nM. The efflux ratio at 120 min, 2 μM in “in vitro” was determined as 60.

With `NC(=O)CNCCOc1ccc(N2CCN(CCn3c(=O)sc4c3nc(N)n3nc(-c5ccco5)nc43)CC2)c(F)c1` [Compound 45, 2-((2-(4-(4-(2-(5-amino-8-(furan-2-yl)-2-oxothiazolo[5,4-e][1,2,4]triazolo[1,5-c]pyrimidin-3(2H)-yl)ethyl)piperazin-1-yl)-3-fluorophenoxy)ethyl)amino)acetamide], the IC50 at A2A receptor (setting [1]) came to 0.8 nM; at A2A receptor (setting [3]), 3 nM; on A2A receptor (setting [2]), 100 nM. The efflux ratio at 120 min, 2 μM in “in vitro” is 41.

Regarding `Nc1nc2c(sc(=O)n2CCN2CCN(c3ccc(OC4CCNCC4)cc3F)CC2)c2nc(-c3ccco3)nn12` [Compound 47, 5-amino-3-(2-(4-(2-fluoro-4-(piperidin-4-yloxy)phenyl)piperazin-1-yl)ethyl)-8-(furan-2-yl)thiazolo[5,4-e][1,2,4]triazolo[1,5-c]pyrimidin-2(3H)-one], the IC50 on A2A receptor (setting [1]) was 1.8 nM; on A2A receptor (setting [3]) it was 1 nM; on A2A receptor (setting [2]), 43 nM. In addition, the efflux ratio at 120 min, 2 μM in “in vitro” turned out to be 329.

Consider `Nc1nc2c(sc(=O)n2CCN2CCN(c3cc(C(=O)N4CC[S+]([O-])CC4)c(F)cc3F)CC2)c2nc(-c3ccco3)nn12` [Compound 117, 5-amino-3-(2-(4-(2,4-difluoro-5-(1-oxidothiomorpholine-4-carbonyl)phenyl)piperazin-1-yl)ethyl)-8-(furan-2-yl)thiazolo[5,4-e][1,2,4]triazolo[1,5-c]pyrimidin-2(3H)-one], for which the IC50 was determined as 329 nM on A2A receptor (setting [1]) and 3160 nM at A2A receptor (setting [2]). Besides, the efflux ratio at 120 min, 2 μM in “in vitro” came out at 12.

For the molecule `CNCCN(C)C(=O)c1ccc(N2CCN(CCn3c(=O)sc4c3nc(N)n3nc(-c5ccco5)nc43)CC2)c(F)c1` [Compound 55, 4-(4-(2-(5-amino-8-(furan-2-yl)-2-oxothiazolo[5,4-e][1,2,4]triazolo[1,5-c]pyrimidin-3(2H)-yl)ethyl)piperazin-1-yl)-3-fluoro-N-methyl-N-(2-(methylamino)ethyl)benzamide], the results for the IC50 on A2A receptor (setting [1]), on A2A receptor (setting [3]) and on A2A receptor (setting [2]) were 1 nM, 2 nM and 141 nM, respectively. Moreover, the efflux ratio at 120 min, 2 μM in the data set “in vitro” came out at 205.

For `CNCCNC(=O)COc1cc(N2CCN(CCn3c(=O)sc4c3nc(N)n3nc(-c5ccco5)nc43)CC2)c(F)cc1F` [Compound 62, 2-(5-(4-(2-(5-amino-8-(furan-2-yl)-2-oxothiazolo[5,4-e][1,2,4]triazolo[1,5-c]pyrimidin-3(2H)-yl)ethyl)piperazin-1-yl)-2,4-difluorophenoxy)-N-(2-(methylamino)ethyl)acetamide], the IC50 is 0.5 nM at A2A receptor (setting [1]), 1 nM on A2A receptor (setting [3]) and 21 nM on A2A receptor (setting [2]). Also, in “in vitro”, the efflux ratio at 120 min, 2 μM came out at 23.

For the molecule `CN(CC[S@@+](C)[O-])C(=O)c1cc(N2CCN(CCn3c(=O)sc4c3nc(N)n3nc(-c5ccco5)nc43)CC2)c(F)cc1F` [Compound 116, (R)-5-(4-(2-(5-amino-8-(furan-2-yl)-2-oxothiazolo[5,4-e][1,2,4]triazolo[1,5-c]pyrimidin-3(2H)-yl)ethyl)piperazin-1-yl)-2,4-difluoro-N-methyl-N-(2-(methylsulfinyl)ethyl)benzamide], the IC50 at A2A receptor (setting [1]) was found to be 1.2 nM; at A2A receptor (setting [2]), 245 nM. Also, the efflux ratio at 120 min, 2 μM in “in vitro” was found to be 421.
